BigSolDB 2.1

N[C@@H](Cc1ccccc1)C(=O)O
solubility (mole fraction)
Details | 288.15 K | 293.15 K | 298.15 K | 303.15 K | 308.15 K
in ethanol | 8.9e-05 | 9.96e-05 | 0.000116 | 0.000134 | 0.00016
in methanol | 0.00032 | 0.000416 | 0.000563 | 0.00065 | 0.000743
in water | 0.00219 | 0.00247 | 0.00277 | 0.00312 | 0.00348
